Laboratory results reported in ChEMBL document CHEMBL1159055, “Oxime carbamate--discovery of a series of novel FAAH inhibitors” (Bioorg Med Chem Lett, 2010).
Activity calls are given as the source filed them. No cut-off for these calls is given here.

What follows are compounds tested on Rattus norvegicus (assay: Antinociceptive activity in iv dosed Sprague-Dawley rat assessed inhibition of thermal stimulus-induced hind paw withdrawal after 32 mins in presence of anandamide).
Type: functional, organism-based

Row | Structure (SMILES) | Activity
1 | CCCCOc1ccc(NC(=O)O/N=C/c2ccc(F)cc2)cc1 | Dose-dependent effect

Each compound was assayed against T1, Fatty-acid amide hydrolase 1 (Homo sapiens, UniProt O00519) (assay: Competitive inhibition of human FAAH expressed in human H4 cells).
T1 sequence (O00519 whole entry): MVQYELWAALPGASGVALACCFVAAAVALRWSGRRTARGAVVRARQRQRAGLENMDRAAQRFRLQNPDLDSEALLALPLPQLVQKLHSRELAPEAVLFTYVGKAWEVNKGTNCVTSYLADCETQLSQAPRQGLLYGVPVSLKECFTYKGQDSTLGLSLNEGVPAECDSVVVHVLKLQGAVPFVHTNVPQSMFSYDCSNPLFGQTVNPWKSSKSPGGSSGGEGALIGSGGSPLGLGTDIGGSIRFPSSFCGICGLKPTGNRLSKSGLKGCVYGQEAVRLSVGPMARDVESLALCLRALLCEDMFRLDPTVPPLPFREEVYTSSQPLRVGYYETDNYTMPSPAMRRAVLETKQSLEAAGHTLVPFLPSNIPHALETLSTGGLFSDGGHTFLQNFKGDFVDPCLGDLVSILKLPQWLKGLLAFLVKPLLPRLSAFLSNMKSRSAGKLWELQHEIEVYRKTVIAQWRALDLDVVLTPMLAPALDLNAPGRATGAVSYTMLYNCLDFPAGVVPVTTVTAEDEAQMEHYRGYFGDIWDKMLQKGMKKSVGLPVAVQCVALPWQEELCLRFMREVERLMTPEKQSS
Type: cell-based

Row | Structure (SMILES) | Ki
2 | CCCCOc1ccc(NC(=O)O/N=C/c2ccc(F)cc2)cc1 | 30 nM

What follows are compounds tested on Rattus norvegicus (assay: Antinociceptive activity in Sprague-Dawley rat assessed inhibition of thermal stimulus-induced hind paw withdrawal at 10 mg/kg, iv after 32 mins).
Type: functional, organism-based
Design: dose 10 mg/kg

Row | Structure (SMILES) | Activity
3 | CCCCOc1ccc(NC(=O)O/N=C/c2ccc(F)cc2)cc1 | inactive

Each compound was assayed against T2, Fatty-acid amide hydrolase 1 (Homo sapiens) (UniProt O00519) (assay: Inhibition of human FAAH-mediated anandamide hydrolysis expressed in human H4 cells assessed as reduction in initial reaction rate at 5 nM by fluorescence assay relative to vehicle control).
T2 sequence (whole entry): T1 sequence (O00519 whole entry)
Type: cell-based
Design: scale not given: the % may be the effect or the level left

Row | Structure (SMILES) | Activity
4 | CCCCOc1ccc(NC(=O)O/N=C/c2ccc(F)cc2)cc1 | 25%

These compounds were tested on Rattus norvegicus (assay: Antinociceptive activity in Sprague-Dawley rat assessed inhibition of thermal stimulus-induced hind paw withdrawal at 1 mg/kg, iv after 32 mins).
Type: functional, organism-based
Design: dose 1 mg/kg

Row | Structure (SMILES) | Activity
5 | CCCCOc1ccc(NC(=O)O/N=C/c2ccc(F)cc2)cc1 | inactive

What follows are compounds tested against T1, Fatty-acid amide hydrolase 1 (assay: Inhibition of human FAAH expressed in human H4 cells).
Type: cell-based

Row | Structure (SMILES) | IC50
6 | CCOc1ccc(NC(=O)O/N=C/c2ccc(F)cc2)cc1 | 46 nM
7 | CCCCCCCCOc1ccc(NC(=O)O/N=C/c2cccnc2)cc1 | 0.8 nM
8 | CCCCOc1ccc(C(CC)NC(=O)Oc2ccccc2F)cc1 (stereo not drawn) | 7.7 nM
9 | CCCCOc1cccc(NC(=O)ON=C(C)C)c1 | 6300 nM
10 | CCCCOc1ccc(C(CC)NC(=O)Oc2ccc(OC)cc2)cc1 (stereo not drawn) | 12 nM
11 | CCCCCCCCOc1ccc(NC(=O)Oc2ccccc2)cc1 | 5.4 nM
12 | CCCCCCCCCCOc1ccc(NC(=O)ON=C(C)C)cc1 | 2.2 nM
13 | CCCCCCCCCCCOc1ccc(NC(=O)O/N=C/c2ccc(F)cc2)cc1 | 0.4 nM
14 | CCCCOc1ccc(NC(=O)O/N=C/c2ccccc2)cc1 | 8.5 nM
15 | CCCCCCCCOc1ccc(NC(=O)Oc2ccccc2F)cc1 | 19 nM
16 | CCCCOc1ccc(CNC(=O)Oc2cccc(Cl)c2)cc1 | 12 nM
17 | CCCCCCCCCCCCOc1ccc(NC(=O)O/N=C/c2cccnc2)cc1 | 0.35 nM
18 | CCCCCCCCCCCOc1ccc(NC(=O)O/N=C/c2ccccc2)cc1 | 0.45 nM
19 | CCCCOc1ccc(C(CC)NC(=O)Oc2ccc(F)cc2F)cc1 (stereo not drawn) | 21 nM
20 | CCCCOc1ccc(NC(=O)Oc2ccc(F)cc2)cc1 | 120 nM
21 | CCCCCCCCCOc1ccc(NC(=O)O/N=C/c2ccc(F)cc2)cc1 | 0.2 nM
22 | COc1ccc(NC(=O)O/N=C/c2ccccc2)cc1 | 290 nM
23 | O=C(Nc1ccc(Oc2ccccc2)cc1)Oc1ccccc1F | 1300 nM
24 | CCCCCCCCCCOc1ccc(NC(=O)Oc2ccccc2F)cc1 | 9.2 nM
25 | CCOc1ccc(NC(=O)ON=C(C)C)cc1 | 730 nM
26 | CCCOc1ccc(NC(=O)O/N=C/c2ccccc2)cc1 | 9.3 nM
27 | CCc1ccc(-c2ccc(NC(=O)Oc3ccccc3F)cc2)cc1 | 810 nM
28 | CCCCOc1ccc(NC(=O)Oc2ccccc2F)cc1 | 340 nM
29 | CCCOc1ccc(NC(=O)O/N=C/c2cccnc2)cc1 | 29 nM
30 | CCOc1ccc(NC(=O)O/N=C/c2ccccc2)cc1 | 81 nM
31 | CCCCCCCCCCCCOc1ccc(NC(=O)ON=C(C)C)cc1 | 5 nM

Row | Structure (SMILES) | IC50
32 | CCCCCCCCCCOc1ccc(NC(=O)Oc2ccccc2)cc1 | 1.4 nM
33 | CCCCCCCCCCCCOc1ccc(NC(=O)O/N=C/c2ccc(F)cc2)cc1 | 2.1 nM
34 | CCCCOc1ccc(CNC(=O)Oc2cccc(C(F)(F)F)c2)cc1 | 40 nM
35 | CCCCCCCOc1ccc(NC(=O)O/N=C/c2ccccc2)cc1 | 8.6 nM
36 | CCCCCCOc1ccc(NC(=O)Oc2ccccc2F)cc1 | 710 nM
37 | CCCCCCCCOc1ccc(NC(=O)ON=C(C)C)cc1 | 2.4 nM
38 | CCCCCCCCCOc1ccc(NC(=O)O/N=C/c2cccnc2)cc1 | 0.65 nM
39 | CCCCCCCCCCCCOc1ccc(NC(=O)O/N=C/c2ccccc2)cc1 | 2.4 nM
40 | CCCCCOc1ccc(NC(=O)O/N=C/c2ccccc2)cc1 | 3.5 nM
41 | CCCCCCCCCCCOc1ccc(NC(=O)Oc2ccccc2)cc1 | 1 nM
42 | CCCCOc1ccc(C(CC)NC(=O)Oc2ccccc2)cc1 (stereo not drawn) | 12 nM
43 | CCCCCCCCCCCCOc1ccc(NC(=O)Oc2ccccc2)cc1 | 1.8 nM
44 | CCCCCCCCCCOc1ccc(NC(=O)O/N=C/c2ccccc2)cc1 | 0.35 nM
45 | Cc1nc(-c2ccccc2)c(-c2ccccc2)n1CCCCCCNC(=O)Oc1ccccc1F | 1.7 nM
46 | CCCCOc1ccc(C(CC)NC(=O)Oc2cccc(C(F)(F)F)c2)cc1 (stereo not drawn) | 51 nM
47 | CCCCOc1ccc(NC(=O)O/N=C/c2cccnc2)cc1 | 14 nM
48 | CCCOc1ccc(NC(=O)ON=C(C)C)cc1 | 210 nM
49 | CCCCOc1ccc(C(CC)NC(=O)Oc2ccc(F)cc2)cc1 (stereo not drawn) | 12 nM
50 | CCCCCOc1ccc(NC(=O)O/N=C/c2cccnc2)cc1 | 6.1 nM
51 | CCCCCCCCCCOc1ccc(NC(=O)O/N=C/c2cccnc2)cc1 | 0.35 nM
52 | CCCCOc1ccc(C(CC)NC(=O)Oc2cccc(N(C)C)c2)cc1 (stereo not drawn) | 54 nM
53 | CCCCOc1ccc(NC(=O)ON=C(C)C)cc1 | 28 nM
54 | CCCCCCCCCCCOc1ccc(NC(=O)O/N=C/c2cccnc2)cc1 | 0.15 nM
55 | CCCCOc1ccc(CNC(=O)Oc2ccc(F)cc2F)cc1 | 8.7 nM
56 | CCCCCCCCCOc1ccc(NC(=O)O/N=C/c2ccccc2)cc1 | 0.25 nM
57 | CCCCCCCOc1ccc(NC(=O)Oc2ccccc2F)cc1 | 28 nM

Row | Structure (SMILES) | IC50
58 | CCCCCCCOc1ccc(NC(=O)ON=C(C)C)cc1 | 8.4 nM
59 | CCCCCCOc1ccc(NC(=O)O/N=C/c2ccccc2)cc1 | 8 nM
60 | CCCCCCCOc1ccc(NC(=O)O/N=C/c2cccnc2)cc1 | 2.3 nM
61 | CCCCOc1ccc(NC(=O)O/N=C/c2ccc(F)cc2)cc1 | 2.2 nM
62 | CCCCOc1ccc(CNC(=O)ON=C(C)C)cc1 | 570 nM
63 | CCCCCCCCOc1ccc(NC(=O)O/N=C/c2ccc(F)cc2)cc1 | 0.27 nM
64 | CCCCCCOc1ccc(NC(=O)O/N=C/c2cccnc2)cc1 | 8.3 nM
65 | CCCCCCCCCOc1ccc(NC(=O)ON=C(C)C)cc1 | 2.1 nM
66 | CCCCCCOc1ccc(NC(=O)Oc2ccccc2)cc1 | 31 nM
67 | CCCOc1ccc(NC(=O)O/N=C/c2ccc(F)cc2)cc1 | 13 nM
68 | CCCCCOc1ccc(NC(=O)ON=C(C)C)cc1 | 28 nM
69 | CCOc1ccc(NC(=O)O/N=C/c2cccnc2)cc1 | 150 nM
70 | CCCCOc1ccc(CNC(=O)Oc2ccccc2F)cc1 | 9.2 nM
71 | CCCCCCCCCCCCOc1ccc(NC(=O)Oc2ccccc2F)cc1 | 13 nM
72 | CCCCCCOc1ccc(NC(=O)O/N=C/c2ccc(F)cc2)cc1 | 6.5 nM
73 | CCCCCCCCCCOc1ccc(NC(=O)O/N=C/c2ccc(F)cc2)cc1 | 0.25 nM
74 | CCCCCCCCOc1ccc(NC(=O)O/N=C/c2ccccc2)cc1 | 0.43 nM
75 | CCCCOc1ccc(CNC(=O)Oc2cccnc2)cc1 | 6.1 nM
76 | CCCCOc1ccc(NC(=O)ON=C(C)C)cc1OC | 11000 nM
77 | CCCCCCCCCCCOc1ccc(NC(=O)ON=C(C)C)cc1 | 4.9 nM
78 | CCCCOc1ccc(CNC(=O)Oc2ccc(F)cc2)cc1 | 4.6 nM
79 | CCCCCCCOc1ccc(NC(=O)O/N=C/c2ccc(F)cc2)cc1 | 2.3 nM
80 | CCCCCCCCCCCOc1ccc(NC(=O)Oc2ccccc2F)cc1 | 15 nM
81 | CCCCCCOc1ccc(NC(=O)ON=C(C)C)cc1 | 18 nM
82 | CCCCCOc1ccc(NC(=O)O/N=C/c2ccc(F)cc2)cc1 | 1.8 nM
83 | CCCCCCCOc1ccc(NC(=O)Oc2ccccc2)cc1 | 8.6 nM
